Test results reported in ChEMBL document CHEMBL1157345, “Evaluation of indazole-based compounds as a new class of potent KDR/VEGFR-2 inhibitors” (Bioorg Med Chem Lett, 2008).

Experiments:
[1] = molecular target: Vascular endothelial growth factor receptor 2 (Homo sapiens, UniProt P35968); assay: Inhibition of recombinant KDR by HTRF assay
[2] = test system: HUVEC; assay: Inhibition of VEGF-stimulated HUVEC cell proliferation treated before 2 hrs of VEGF challenge assessed after 72 hrs; format: functional, cell-based; conditions: Homo sapiens
[3] = test system: HUVEC; assay: Inhibition of bFGF-stimulated HUVEC cell proliferation treated before 2 hrs of bFGF challenge assessed after 72 hrs; format: functional, cell-based; conditions: Homo sapiens
[4] = Clearance in Sprague-Dawley rat at 1 mg/kg, iv or 10 mg/kg, po; format: ADME, organism-based; conditions: in vivo
[5] = Volume of distribution at steady state in Sprague-Dawley rat at 1 mg/kg, iv or 10 mg/kg, po; format: ADME, organism-based; conditions: in vivo, read-out: Vdss
[6] = Half life in Sprague-Dawley rat at 1 mg/kg, iv or 10 mg/kg, po; format: ADME, organism-based; conditions: in vivo
[7] = Bioavailability in Sprague-Dawley rat at 1 mg/kg, iv or 10 mg/kg, po; format: ADME, organism-based; conditions: in vivo
[8] = AUC (0 to infinity) in Sprague-Dawley rat at 1 mg/kg, iv or 10 mg/kg, po; format: ADME, organism-based; conditions: plasma
[9] = molecular target: Aurora kinase B (Homo sapiens, UniProt Q96GD4); assay: Inhibition of aurora 1 kinase
[10] = molecular target: Angiopoietin-1 receptor (Homo sapiens, UniProt Q02763); assay: Inhibition of Tie 2
[11] = molecular target: T1, Aurora kinase A (Homo sapiens, UniProt O14965); assay: Inhibition of aurora 2 kinase
T1 sequence (O14965 whole entry): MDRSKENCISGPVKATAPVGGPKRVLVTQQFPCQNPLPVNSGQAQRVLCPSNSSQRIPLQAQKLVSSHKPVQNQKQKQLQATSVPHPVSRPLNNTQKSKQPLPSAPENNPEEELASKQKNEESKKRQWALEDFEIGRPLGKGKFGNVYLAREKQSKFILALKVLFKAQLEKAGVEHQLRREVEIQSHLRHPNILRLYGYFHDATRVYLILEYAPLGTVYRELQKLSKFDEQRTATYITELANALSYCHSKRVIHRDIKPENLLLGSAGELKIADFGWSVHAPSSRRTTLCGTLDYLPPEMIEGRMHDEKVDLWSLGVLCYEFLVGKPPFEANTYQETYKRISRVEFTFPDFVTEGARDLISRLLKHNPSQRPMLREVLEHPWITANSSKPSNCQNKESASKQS

[12] = molecular target: Mitogen-activated protein kinase 14 (Homo sapiens, UniProt Q16539); assay: Inhibition of p38alpha
[13] = molecular target: Phosphatidylinositol 4,5-bisphosphate 3-kinase catalytic subunit alpha isoform (Homo sapiens, UniProt P42336); assay: Inhibition of PI3K
[14] = molecular target: Hepatocyte growth factor receptor (Homo sapiens, UniProt P08581); assay: Inhibition of cMET
[15] = test system: HEK293; assay: Inhibition of vascular permeability in mouse VEGF expressing HEK293 cells xenografted in po dosed athymic nude mouse; format: functional, organism-based; conditions: Homo sapiens
[16] = test system: Mus musculus; assay: Plasma concentration in mouse VEGF expressing HEK293 cells xenografted in athymic nude mouse at 10 mg/kg, po; format: ADME, organism-based; set-up: dose 10 mg/kg, route oral; conditions: in vivo
[17] = test system: Mus musculus; assay: Plasma concentration in mouse VEGF expressing HEK293 cells xenografted in athymic nude mouse at 30 mg/kg, po; format: ADME, organism-based; set-up: dose 30 mg/kg, route oral; conditions: in vivo

Vascular endothelial growth factor receptor 2, sequence (P35968 whole entry): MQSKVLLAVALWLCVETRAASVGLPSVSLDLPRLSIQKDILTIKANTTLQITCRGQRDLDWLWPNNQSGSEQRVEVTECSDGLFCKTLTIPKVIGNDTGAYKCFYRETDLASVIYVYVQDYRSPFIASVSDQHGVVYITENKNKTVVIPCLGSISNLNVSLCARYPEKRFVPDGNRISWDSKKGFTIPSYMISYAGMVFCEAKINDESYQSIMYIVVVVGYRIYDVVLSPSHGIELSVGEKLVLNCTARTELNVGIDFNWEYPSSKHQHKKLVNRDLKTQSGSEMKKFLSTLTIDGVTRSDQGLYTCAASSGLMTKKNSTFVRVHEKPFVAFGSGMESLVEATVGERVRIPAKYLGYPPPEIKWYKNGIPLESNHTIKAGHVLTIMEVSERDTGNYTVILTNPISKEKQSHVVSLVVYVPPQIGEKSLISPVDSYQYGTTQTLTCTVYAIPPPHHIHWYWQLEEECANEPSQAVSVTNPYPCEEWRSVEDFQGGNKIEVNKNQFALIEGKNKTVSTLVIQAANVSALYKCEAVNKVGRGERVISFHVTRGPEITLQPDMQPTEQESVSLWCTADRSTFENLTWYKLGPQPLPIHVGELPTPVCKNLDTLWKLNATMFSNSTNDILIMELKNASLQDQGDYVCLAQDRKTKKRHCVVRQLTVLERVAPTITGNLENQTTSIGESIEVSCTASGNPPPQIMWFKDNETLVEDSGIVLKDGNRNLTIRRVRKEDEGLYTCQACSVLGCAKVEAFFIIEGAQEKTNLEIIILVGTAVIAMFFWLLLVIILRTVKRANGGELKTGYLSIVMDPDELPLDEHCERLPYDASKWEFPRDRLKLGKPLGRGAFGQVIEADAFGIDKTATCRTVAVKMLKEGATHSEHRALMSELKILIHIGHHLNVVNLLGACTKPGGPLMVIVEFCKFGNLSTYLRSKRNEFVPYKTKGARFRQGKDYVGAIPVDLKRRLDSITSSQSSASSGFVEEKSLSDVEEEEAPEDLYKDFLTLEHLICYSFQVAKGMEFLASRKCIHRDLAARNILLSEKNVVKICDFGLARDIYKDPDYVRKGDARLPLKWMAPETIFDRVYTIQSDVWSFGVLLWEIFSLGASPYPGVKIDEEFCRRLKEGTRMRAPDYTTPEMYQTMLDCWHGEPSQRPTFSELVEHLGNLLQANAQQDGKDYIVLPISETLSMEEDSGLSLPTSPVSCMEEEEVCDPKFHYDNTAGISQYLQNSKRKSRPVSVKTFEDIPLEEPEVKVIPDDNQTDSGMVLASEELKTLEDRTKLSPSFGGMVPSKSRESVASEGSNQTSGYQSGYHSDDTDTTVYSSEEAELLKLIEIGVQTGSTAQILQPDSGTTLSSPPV
Angiopoietin-1 receptor, sequence (Q02763 whole entry): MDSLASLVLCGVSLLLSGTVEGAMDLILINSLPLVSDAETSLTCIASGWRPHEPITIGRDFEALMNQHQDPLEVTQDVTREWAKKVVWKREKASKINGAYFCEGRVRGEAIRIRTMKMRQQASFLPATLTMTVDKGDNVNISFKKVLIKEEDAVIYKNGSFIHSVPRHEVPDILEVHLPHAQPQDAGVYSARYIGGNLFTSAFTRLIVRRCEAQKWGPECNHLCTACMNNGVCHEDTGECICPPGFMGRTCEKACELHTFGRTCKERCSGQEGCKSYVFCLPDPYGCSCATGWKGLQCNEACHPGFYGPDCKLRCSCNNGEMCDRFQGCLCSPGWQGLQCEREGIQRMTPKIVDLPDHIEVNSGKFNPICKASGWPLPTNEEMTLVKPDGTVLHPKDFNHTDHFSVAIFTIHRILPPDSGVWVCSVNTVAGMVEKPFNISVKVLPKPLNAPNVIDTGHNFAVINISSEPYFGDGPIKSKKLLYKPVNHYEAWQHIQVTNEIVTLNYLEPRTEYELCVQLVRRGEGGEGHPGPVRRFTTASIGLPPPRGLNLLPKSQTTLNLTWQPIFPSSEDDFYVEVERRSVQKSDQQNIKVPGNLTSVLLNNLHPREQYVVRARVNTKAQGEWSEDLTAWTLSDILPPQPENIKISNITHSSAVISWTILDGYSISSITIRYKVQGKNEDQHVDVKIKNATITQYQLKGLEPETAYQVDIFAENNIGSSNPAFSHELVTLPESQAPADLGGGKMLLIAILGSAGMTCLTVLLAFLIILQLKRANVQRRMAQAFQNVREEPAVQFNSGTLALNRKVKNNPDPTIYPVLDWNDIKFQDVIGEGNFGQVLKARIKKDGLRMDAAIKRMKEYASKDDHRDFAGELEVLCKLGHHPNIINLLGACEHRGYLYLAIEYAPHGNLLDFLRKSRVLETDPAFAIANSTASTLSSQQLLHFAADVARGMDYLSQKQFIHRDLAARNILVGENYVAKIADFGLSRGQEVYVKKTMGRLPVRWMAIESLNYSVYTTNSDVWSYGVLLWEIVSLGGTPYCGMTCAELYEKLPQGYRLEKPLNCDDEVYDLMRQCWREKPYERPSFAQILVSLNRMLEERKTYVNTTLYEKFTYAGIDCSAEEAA
Phosphatidylinositol 4,5-bisphosphate 3-kinase catalytic subunit alpha isoform, sequence (P42336 whole entry, canonical isoform): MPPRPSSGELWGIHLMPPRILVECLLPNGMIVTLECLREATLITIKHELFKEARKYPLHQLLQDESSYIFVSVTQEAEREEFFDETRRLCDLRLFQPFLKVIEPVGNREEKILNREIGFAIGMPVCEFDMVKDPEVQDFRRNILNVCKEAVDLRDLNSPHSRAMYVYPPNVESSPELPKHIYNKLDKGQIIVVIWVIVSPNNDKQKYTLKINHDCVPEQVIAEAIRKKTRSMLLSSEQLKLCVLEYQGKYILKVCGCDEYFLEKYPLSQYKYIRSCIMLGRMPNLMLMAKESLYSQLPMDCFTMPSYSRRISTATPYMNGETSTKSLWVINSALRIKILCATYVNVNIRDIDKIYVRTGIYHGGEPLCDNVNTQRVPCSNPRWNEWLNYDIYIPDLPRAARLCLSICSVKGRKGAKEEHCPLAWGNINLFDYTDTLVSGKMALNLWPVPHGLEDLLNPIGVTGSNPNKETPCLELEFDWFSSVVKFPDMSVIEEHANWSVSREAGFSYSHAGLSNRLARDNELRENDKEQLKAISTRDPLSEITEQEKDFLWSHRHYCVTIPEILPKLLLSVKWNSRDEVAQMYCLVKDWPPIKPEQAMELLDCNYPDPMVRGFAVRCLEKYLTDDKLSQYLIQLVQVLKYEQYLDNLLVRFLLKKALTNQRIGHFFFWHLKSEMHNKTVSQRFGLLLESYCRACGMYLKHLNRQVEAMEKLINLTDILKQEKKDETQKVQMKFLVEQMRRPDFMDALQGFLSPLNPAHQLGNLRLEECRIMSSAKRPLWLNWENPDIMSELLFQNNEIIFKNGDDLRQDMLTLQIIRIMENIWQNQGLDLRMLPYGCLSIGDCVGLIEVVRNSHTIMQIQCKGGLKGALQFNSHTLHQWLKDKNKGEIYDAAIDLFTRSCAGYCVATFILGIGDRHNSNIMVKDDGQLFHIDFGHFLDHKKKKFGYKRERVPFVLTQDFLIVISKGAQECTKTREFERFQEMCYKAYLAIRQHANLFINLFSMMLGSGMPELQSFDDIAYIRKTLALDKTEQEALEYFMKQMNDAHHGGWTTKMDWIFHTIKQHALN
Aurora kinase B, sequence (Q96GD4 whole entry): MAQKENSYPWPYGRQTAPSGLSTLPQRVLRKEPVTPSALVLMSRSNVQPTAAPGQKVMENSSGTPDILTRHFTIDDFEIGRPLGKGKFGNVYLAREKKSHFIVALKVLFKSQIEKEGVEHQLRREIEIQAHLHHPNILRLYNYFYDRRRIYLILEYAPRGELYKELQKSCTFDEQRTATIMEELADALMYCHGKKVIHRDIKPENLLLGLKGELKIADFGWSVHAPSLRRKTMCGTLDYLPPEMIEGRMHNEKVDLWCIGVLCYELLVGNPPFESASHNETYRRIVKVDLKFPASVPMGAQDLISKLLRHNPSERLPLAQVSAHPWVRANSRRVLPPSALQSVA
Mitogen-activated protein kinase 14, sequence (Q16539 whole entry, canonical isoform): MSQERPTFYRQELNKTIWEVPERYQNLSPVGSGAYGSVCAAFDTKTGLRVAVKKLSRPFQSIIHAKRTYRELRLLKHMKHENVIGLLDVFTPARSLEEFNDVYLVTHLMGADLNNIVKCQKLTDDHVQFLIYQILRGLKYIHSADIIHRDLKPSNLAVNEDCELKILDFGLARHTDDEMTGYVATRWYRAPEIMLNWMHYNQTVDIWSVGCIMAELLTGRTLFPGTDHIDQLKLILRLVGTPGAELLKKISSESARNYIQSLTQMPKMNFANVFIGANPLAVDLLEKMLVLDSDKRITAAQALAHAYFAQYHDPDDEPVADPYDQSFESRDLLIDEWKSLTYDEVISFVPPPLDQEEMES

Compound	IC50 [1] [nM]	IC50 [2] [nM]	IC50 [3] [nM]	also measured
COc1cc2nccc(Oc3ccc4c(NC(=O)C5CC5)nn(C)c4c3)c2cc1OC	344	–	> 1000	–
CCCNc1nn(C)c2cc(Oc3ccnc4cc(OC)c(OC)cc34)ccc12	1110	–	> 1000	–
COc1ccc(Nc2nn(C)c3cc(Oc4ccnc5cc(OC)c(OC)cc45)ccc23)cc1	160	–	> 1000	–
CCNc1nn(C)c2cc(Oc3ccnc4cc(OC)c(OC)cc34)ccc12	370	–	> 1000	–
COc1cc2nccc(Oc3ccc4c(Nc5ccc(C(F)(F)F)cc5)nn(C)c4c3)c2cc1OC	70	–	> 1000	–
COc1cc2nccc(Oc3ccc4c(NC(=O)c5ccc(Cl)cc5)nn(C)c4c3)c2cc1OC	5	61	> 1000	–
COc1cccc(Nc2nn(C)c3cc(Oc4ccnc5cc(OC)c(OC)cc45)ccc23)c1	230	–	> 1000	–
COc1cc2nccc(Oc3ccc4c(N)nn(C)c4c3)c2cc1OC	1700	–	> 1000	–
COc1cc2nccc(Oc3ccc4c(NC(=O)c5ccccc5Cl)nn(C)c4c3)c2cc1OC	8	–	> 1000	–
COc1cc2nccc(Oc3ccc4c(NC(=O)Nc5ccc(C(F)(F)F)cc5Cl)nn(C)c4c3)c2cc1OC	8	1150	> 1000	–
CCCCNc1nn(C)c2cc(Oc3ccnc4cc(OC)c(OC)cc34)ccc12	800	–	> 1000	–
COc1ccc(C(=O)Nc2nn(C)c3cc(Oc4ccnc5cc(OC)c(OC)cc45)ccc23)cc1	3	32	> 1000	–
COc1cc2nccc(Oc3ccc4c(NCc5ccccc5)nn(C)c4c3)c2cc1OC	60	–	> 1000	–
COc1cc2nccc(Oc3ccc4c(Nc5ccccc5)nn(C)c4c3)c2cc1OC	270	–	> 1000	–

Now from value to compound, other results behind:

IC50 [1] [nM]	Compound	IC50 [2] [nM]	IC50 [3] [nM]	also measured
2	COc1cc2nccc(Oc3ccc4c(NC(=O)c5cc(Cl)ccn5)nn(C)c4c3)c2cc1OC	27	> 1000	–
2	COc1cc2nccc(Oc3ccc4c(NC(=O)c5cc(C(F)(F)F)cc(C(F)(F)F)c5)nn(C)c4c3)c2cc1OC	58	> 1000	–
2	COc1cc2nccc(Oc3ccc4c(NC(=O)c5cccc(C)c5)nn(C)c4c3)c2cc1OC	2	> 1000	clearance [4]: 20 mL/min/kg; Vd [5]: 2.4 L/kg; half-life [6]: 2.7 h; bioavailability [7]: 12%; AUC(0-inf) [8]: 153 ng·h/mL
2	COc1cc2nccc(Oc3ccc4c(NC(=O)Nc5ccc(C)cc5)nn(C)c4c3)c2cc1OC	3	> 1000	–
2	COc1cc2nccc(Oc3ccc4c(NC(=O)Nc5ccccc5)nn(C)c4c3)c2cc1OC	6	> 1000	clearance [4]: 6.67 mL/min/kg; Vd [5]: 2 L/kg; half-life [6]: 4.3 h; bioavailability [7]: 2%; AUC(0-inf) [8]: 121 ng·h/mL
1	COc1cc2nccc(Oc3ccc4c(NC(=O)c5cccc(C(F)(F)F)c5)nn(C)c4c3)c2cc1OC	9	> 1000	clearance [4]: 11.7 mL/min/kg; Vd [5]: 1.4 L/kg; half-life [6]: 2.2 h; bioavailability [7]: 46%; AUC(0-inf) [8]: 1530 ng·h/mL; IC50 [9]: 45 nM; IC50 [10]: 121 nM; IC50 [11]: 764 nM; IC50 [12]: 1650 nM; IC50 [13]: 3250 nM; IC50 [14]: 3320 nM; Activity [15]: Dose-dependent effect; Cp [16]: 181 ng/mL; Cp [17]: 347 ng/mL
1	COc1ccc(NC(=O)Nc2nn(C)c3cc(Oc4ccnc5cc(OC)c(OC)cc45)ccc23)cc1	7	> 1000	–
1	COc1ccccc1Nc1cccc2cc(Oc3ccnc4cc(OC)c(OC)cc34)ccc12	–	–	–
3	COc1cc2nccc(Oc3ccc4c(NC(=O)c5ccc(F)c(Cl)c5)nn(C)c4c3)c2cc1OC	9	> 1000	clearance [4]: 21.7 mL/min/kg; Vd [5]: 2.1 L/kg; half-life [6]: 1.5 h
3	COc1cc2nccc(Oc3ccc4c(NC(=O)c5ccc(C(F)(F)F)cc5)nn(C)c4c3)c2cc1OC	79	> 1000	–
2	COc1cc2nccc(Oc3ccc4c(Nc5ccccc5)cccc4c3)c2cc1OC	–	–	–
